Experiment in all cases: DTP human tumour cell line panel, 48 h
Assay [1] relates to SR.
The test system of assay [2] is ACHN.
Assay [3] deals with UACC-257.
Assay [4] relates to CCRF-CEM.
The subject of assay [5] is A498.
The subject of assay [6] is SF-295.
For assay [7], the system named is NCI-H226.
The subject of assay [8] is NCI-H460.
For assay [9], the system named is UACC-62.
In assay [10] the test system is OVCAR-4.
In assay [11] the test system is U-251.
Assay [12] deals with NCI-H522.
The subject of assay [13] is M19-MEL.
Assay [14] has as its system SW-620.
The test system of assay [15] is HCT-15.
The test system of assay [16] is EKVX.
Assay [17] deals with 786-0.
The test system of assay [18] is MOLT-4.
Assay [19] deals with SNB-19.
Assay [20] has as its system HT-29.

Each structure is given as a SMILES string.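 Five compound concentrations were applied to cells in 96-well plates for 48 hours; endpoints were derived by simple linear interpolation of the resulting dose-response curve. GI50: concentration for 50% inhibition of growth.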 Activity calls are given as the source filed them. Cut-off read from the data, not from the text of the source: active = GI50 up to about 1.1 µM and inactive = higher. Where only a bound is given, the exact number is not on record here.

A word on the GI50: it is the concentration at which growth is held to half of that of the control. For the molecule `O=C(NC(=O)c1c(F)cccc1F)Nc1cccc(Oc2ncc(Cl)cn2)c1`, the GI50 in assay [1] is 6.1 µM (inactive); in assay [2], 99.3 µM (inactive); in assay [3], > 100 µM (inactive); in assay [4] it was 47.1 µM (inactive); in assay [5] it was > 76.6 µM (inactive); in assay [6] it was 32.3 µM (inactive). For the same molecule, the GI50 in assay [7] was 62.7 µM (inactive); in assay [8], 4.51 µM (inactive); in assay [9], 36.6 µM (inactive); in assay [10], > 69 µM (inactive); in [11], 33.2 µM (inactive); in assay [12] it was 20.3 µM (inactive). For the same molecule, the GI50 in assay [13] is > 100 µM (inactive); in [14] it was 4.3 µM (inactive); in assay [15], 3.27 µM; in assay [16], > 100 µM (inactive); in assay [17], 40 µM (inactive); in [18], > 80.5 µM (inactive). Also, the results for the GI50 in [19] and in [20] were 45.5 µM (inactive) and 4.59 µM (inactive), respectively.

On to `Nc1ccc(Sc2c3ccccc3nc3ccccc23)cc1`, for which the GI50 in assay [1] is 3.74 µM (inactive); in assay [2] it was 12.3 µM (inactive); in assay [3] it was 16.6 µM (inactive); in assay [4] it was 3.28 µM (inactive); in assay [5] it was 68.5 µM (inactive); in assay [6] it was 19.1 µM (inactive). In addition, the GI50 is 18.7 µM (inactive) in assay [7]; 20.4 µM (inactive) in assay [8]; 15.2 µM (inactive) in assay [9]; 12.1 µM (inactive) in assay [10]; 15.2 µM (inactive) in [11]; 6.15 µM (inactive) in assay [12]. Moreover, the GI50 in assay [13] is 20.5 µM (inactive); in assay [14], 10.4 µM (inactive); in assay [15], 17.2 µM; in [16], 23 µM (inactive); in assay [17] it was 5.48 µM (inactive); in assay [18], 3.02 µM (inactive). Further, the figures for the GI50 in [19] and in [20] were 22.1 µM (inactive) and 15.8 µM (inactive), respectively.

On to `O/N=C/c1cc2c(cc1Br)OCO2`, for which the GI50 in assay [1], in assay [2], in assay [3], in [4], in assay [5] and in assay [6] was > 100 µM (inactive) throughout. Further, the GI50 in assay [7], in [8], in [9], in [10], in assay [11] and in [12] was > 100 µM (inactive) in each case. Also, the GI50 in assay [13] was > 100 µM (inactive); in assay [14], > 100 µM (inactive); in [15], over 100 µM; in assay [16], > 100 µM (inactive); in assay [17], > 100 µM (inactive); in assay [18] it was > 100 µM (inactive). For the same molecule, the GI50 in [19] and in assay [20] was > 100 µM (inactive) throughout.

As for `O=C(O)/C(Cl)=C(/Cl)C(=O)Nc1cccc(Cl)c1`, the GI50 in [1] is 8.24 µM (inactive); in assay [2] it was 18.5 µM (inactive); in assay [3], 18 µM (inactive); in assay [4] it was 5.87 µM (inactive); in assay [5], > 64.1 µM (inactive); in [6], 30.5 µM (inactive). The GI50 in assay [7] was 24.8 µM (inactive); in assay [8], > 87.9 µM (inactive); in assay [9], 16.8 µM (inactive); in assay [10], 18.2 µM (inactive); in assay [11] it was 28 µM (inactive); in [12], 4.35 µM (inactive). For the same molecule, the GI50 was 15.6 µM (inactive) in assay [13]; 12.6 µM (inactive) in [14]; 16.6 µM in assay [15]; 17.9 µM (inactive) in [16]; 16.9 µM (inactive) in assay [17]; 4.28 µM (inactive) in assay [18]. The GI50 in [19] was 31.7 µM (inactive); in [20], 20 µM (inactive).

With `C[C@]12CCC(=O)C=C1CC[C@@H]1C2CC[C@@]2(C)C1CC[C@@H]2OC(=O)C12OC1CCC2=O` (stereo not given in full), the GI50 in [1] was 17.1 µM (inactive); in assay [2], 15.6 µM (inactive); in [3] it was 18 µM (inactive); in assay [4], 12.2 µM (inactive); in assay [5], 18 µM (inactive); in assay [6], 16.7 µM (inactive). The GI50 in [7] was 19.1 µM (inactive); in assay [8], 17.9 µM (inactive); in assay [9], 18.3 µM (inactive); in assay [10], 21.6 µM (inactive); in [11], 15.1 µM (inactive); in [12] it was 10.7 µM (inactive). Besides, the GI50 is 16.7 µM (inactive) in assay [13]; 16.9 µM (inactive) in assay [14]; 17 µM in assay [15]; 15.5 µM (inactive) in assay [16]; 16.5 µM (inactive) in assay [17]; 10.1 µM (inactive) in assay [18]. Also, the figures for the GI50 in [19] and in [20] were 19.6 µM (inactive) and 18.9 µM (inactive), respectively.

`CC(C)(C)c1nc2c(o1)C(=O)c1ccccc1C2=O`: the GI50 was 3.16 µM (inactive) in [1]; 2.28 µM (inactive) in [2]; 0.519 µM (active) in assay [3]; 1.47 µM (inactive) in assay [4]; 6.21 µM (inactive) in assay [5]; 1.93 µM (inactive) in assay [6]. Besides, the GI50 was 3.3 µM (inactive) in assay [7]; 3.82 µM (inactive) in assay [8]; 0.653 µM (active) in assay [9]; 0.853 µM (active) in assay [10]; 1.72 µM (inactive) in assay [11]; 1.43 µM (inactive) in assay [12]. The GI50 in assay [13] was 1.25 µM (inactive); in [14] it was 1.58 µM (inactive); in [15], 2.48 µM; in assay [16], 2.68 µM (inactive); in assay [17], 2.75 µM (inactive); in assay [18], 1.76 µM (inactive). For the same molecule, the GI50 was 5.19 µM (inactive) in [19] and 3.9 µM (inactive) in [20].

Take `COC(=O)C12C3C4C1C1C2C3C41C(=O)OC(C)(C)C` (stereo not given): the GI50 is 19.2 µM (inactive) in assay [1]; > 100 µM (inactive) in [2]; > 100 µM (inactive) in [3]; > 71.3 µM (inactive) in [4]; > 100 µM (inactive) in [5]; > 100 µM (inactive) in assay [6]. For the same molecule, the GI50 in assay [7] was > 100 µM (inactive); in [8], > 63.5 µM (inactive); in assay [9], > 100 µM (inactive); in [10] it was > 100 µM (inactive); in assay [11] it was > 100 µM (inactive); in [12] it was > 100 µM (inactive). Further, the GI50 in [13] was > 100 µM (inactive); in assay [14], > 36.2 µM (inactive); in [15], over 100 µM; in [16], > 100 µM (inactive); in [17], > 100 µM (inactive); in assay [18], > 100 µM (inactive). Also, the GI50 in [19] and in assay [20] was > 100 µM (inactive) throughout.

As for `CCN(CC)CCOC(=O)Cc1cccc2c(=O)cc(-c3ccccc3)oc12`, the GI50 in assay [1] is 24.4 µM (inactive); in assay [2] it was 45.2 µM (inactive); in assay [3] it was 54.3 µM (inactive); in assay [4], 34.4 µM (inactive); in assay [5] it was 54.3 µM (inactive); in assay [6], 55.6 µM (inactive). Also, the GI50 in assay [7] was 38.8 µM (inactive); in [8], 10.2 µM (inactive); in assay [9], 29 µM (inactive); in [10] it was 35.9 µM (inactive); in [11] it was 50.2 µM (inactive); in assay [12], 40.8 µM (inactive). The GI50 was 84.5 µM (inactive) in assay [13]; 50.7 µM (inactive) in assay [14]; 18.5 µM in assay [15]; 40.7 µM (inactive) in [16]; 55.1 µM (inactive) in [17]; 42.9 µM (inactive) in [18]. Further, the values for the GI50 in [19] and in assay [20] were 56.1 µM (inactive) and 44.1 µM (inactive), respectively.
